Laboratory results taken from ChEMBL document CHEMBL1201862, “PubChem BioAssay data set” (2004).
Calls of active or inactive are those of the source. For most assays here, no stated cut-off is given here; in the data, actives have a measured EC50 and inactives only a lower limit.

Assays:
[1] = NIH-3T3 fibroblast cytotoxicity, dose response, cytotoxicity control, cell-based, fluorescence, Alamar Blue, secondary assay (AID 2327); assay type: functional;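 further: NIH-3T3 mouse fibroblasts cultured with fluconazole at 8 µg/mL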
[2] = tested on: Streptococcus sp. 'group A'; assay: Streptococcus pyogenes SK(-)GAS viability under kanamycin – luminescence, BacTiterGlo, confirmation, counter-screen for streptokinase expression inhibitor project, dose response (AID 1900); assay type: functional, organism-based
[3] = cells; assay type: functional, cell-based
[4] = fluconazole-exposed Candida albicans growth modulators – fluorescence, retest, confirmation (AID 2467); assay type: functional, cell-based
[5] = Trypanosoma cruzi growth suppression in host cells – NIH3T3 host cells, beta-gal luminescence, confirmation (AID 2044); assay type: functional, cell-based;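 further: intracellular parasites grown in NIH/3T3 mouse fibroblasts as host cells; luminescent beta-galactosidase reporter signal from transgenic T. cruzi replicating inside host cells; inhibitors lower the luminescence signal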
[6] = cells; assay type: functional, cell-based; remark: listed apart in the source
[7] = target: T1, Serine/threonine-protein phosphatase (Candida dubliniensis (strain CD36 / CBS 7987 / NCPF 3949 / NRRLY-17841) (Yeast), UniProt B9W6M3); assay: blockers of CaCl2-induced CDRE-lacZ signaling – S. cerevisiae, luminescence, secondary, dose response (AID 2388); assay type: functional, cell-based;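 further: yeast reporter cells carrying a calcineurin-responsive lacZ construct stimulated with calcium chloride; luminescent beta-galactosidase reporter signal in whole cells rather than isolated phosphatase activity; potency for inhibition where a drop in reporter signal means calcineurin blockade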
T1 sequence (B9W6M3 whole entry): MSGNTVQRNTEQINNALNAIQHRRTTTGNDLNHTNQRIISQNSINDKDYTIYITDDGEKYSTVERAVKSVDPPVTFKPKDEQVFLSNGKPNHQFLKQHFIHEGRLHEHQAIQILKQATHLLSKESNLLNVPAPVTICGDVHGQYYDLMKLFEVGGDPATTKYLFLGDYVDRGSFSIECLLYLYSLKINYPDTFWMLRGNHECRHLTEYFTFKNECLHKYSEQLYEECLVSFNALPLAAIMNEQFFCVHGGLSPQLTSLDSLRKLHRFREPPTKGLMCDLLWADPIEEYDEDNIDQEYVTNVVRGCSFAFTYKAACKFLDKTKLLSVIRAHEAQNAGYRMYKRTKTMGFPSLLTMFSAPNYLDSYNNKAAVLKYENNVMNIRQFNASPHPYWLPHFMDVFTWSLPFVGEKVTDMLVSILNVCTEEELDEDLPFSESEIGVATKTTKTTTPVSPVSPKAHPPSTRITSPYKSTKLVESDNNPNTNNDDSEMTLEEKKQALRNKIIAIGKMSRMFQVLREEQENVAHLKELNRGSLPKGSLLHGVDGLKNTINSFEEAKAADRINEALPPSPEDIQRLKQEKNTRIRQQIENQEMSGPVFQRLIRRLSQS

[8] = NIH3T3 cell viability loss – ATP luminescence, mouse fibroblasts, counter-screen, dose response (AID 2010); assay type: functional, cell-based;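 further: cells exposed to compound for about 90 hours before reading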
[9] = tested on: Streptococcus; assay: GAS UMAA2166 growth inhibition – luminescence, BacTiterGlo, counter-screen for streptokinase expression inhibitor project, dose response (AID 1915); assay type: functional, organism-based;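 further: potency for reduction of bacterial viability or growth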
[10] = target: T2, Hexokinase HKDC1 (Homo sapiens, UniProt Q2TB90); assay: activation of HKDC1 glucose phosphorylation – biochemical, W721R variant, dose response (AID 504730); assay type: functional
T2 sequence (Q2TB90 whole entry): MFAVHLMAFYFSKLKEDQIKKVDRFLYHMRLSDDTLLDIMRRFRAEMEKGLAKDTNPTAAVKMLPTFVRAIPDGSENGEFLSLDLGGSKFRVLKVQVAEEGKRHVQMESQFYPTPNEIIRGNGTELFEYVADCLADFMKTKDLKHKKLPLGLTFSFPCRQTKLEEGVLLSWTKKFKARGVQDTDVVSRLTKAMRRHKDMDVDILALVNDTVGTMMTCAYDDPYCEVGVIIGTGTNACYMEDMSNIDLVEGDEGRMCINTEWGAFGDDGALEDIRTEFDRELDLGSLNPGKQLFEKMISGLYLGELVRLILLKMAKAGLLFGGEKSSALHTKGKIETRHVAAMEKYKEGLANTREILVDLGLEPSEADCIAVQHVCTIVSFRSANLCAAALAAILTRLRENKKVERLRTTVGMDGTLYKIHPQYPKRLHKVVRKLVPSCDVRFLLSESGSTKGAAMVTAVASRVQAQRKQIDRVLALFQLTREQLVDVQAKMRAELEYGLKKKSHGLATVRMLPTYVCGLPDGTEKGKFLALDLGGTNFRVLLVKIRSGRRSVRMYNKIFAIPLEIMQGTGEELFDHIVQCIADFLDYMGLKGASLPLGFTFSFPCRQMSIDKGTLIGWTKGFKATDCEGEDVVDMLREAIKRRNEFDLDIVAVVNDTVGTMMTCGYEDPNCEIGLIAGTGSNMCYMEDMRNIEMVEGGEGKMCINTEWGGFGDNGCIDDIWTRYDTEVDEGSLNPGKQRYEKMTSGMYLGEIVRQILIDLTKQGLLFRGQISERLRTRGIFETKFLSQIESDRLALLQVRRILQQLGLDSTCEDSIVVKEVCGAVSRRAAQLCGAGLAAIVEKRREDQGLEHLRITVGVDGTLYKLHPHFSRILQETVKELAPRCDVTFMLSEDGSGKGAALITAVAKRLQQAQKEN

[11] = target: Nonstructural protein 1 (Influenza A virus, UniProt Q194T2); assay type: functional, Influenza A virus (A/California/07/2009(H1N1))
Nonstructural protein 1, sequence (Q194T2 whole entry): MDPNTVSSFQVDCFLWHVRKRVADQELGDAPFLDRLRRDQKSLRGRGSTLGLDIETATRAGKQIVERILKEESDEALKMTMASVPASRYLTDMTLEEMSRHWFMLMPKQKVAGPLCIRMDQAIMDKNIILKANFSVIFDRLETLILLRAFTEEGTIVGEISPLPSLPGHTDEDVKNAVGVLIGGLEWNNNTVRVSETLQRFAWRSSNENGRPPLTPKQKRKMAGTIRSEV

[12] = target: T3, Hexokinase-1 (Homo sapiens, UniProt P19367); assay: HK1 enzyme activation by HKDC1 hits – biochemical, selectivity assay for HKDC1 activator project, dose response (AID 504762); assay type: functional
T3 sequence (P19367 whole entry): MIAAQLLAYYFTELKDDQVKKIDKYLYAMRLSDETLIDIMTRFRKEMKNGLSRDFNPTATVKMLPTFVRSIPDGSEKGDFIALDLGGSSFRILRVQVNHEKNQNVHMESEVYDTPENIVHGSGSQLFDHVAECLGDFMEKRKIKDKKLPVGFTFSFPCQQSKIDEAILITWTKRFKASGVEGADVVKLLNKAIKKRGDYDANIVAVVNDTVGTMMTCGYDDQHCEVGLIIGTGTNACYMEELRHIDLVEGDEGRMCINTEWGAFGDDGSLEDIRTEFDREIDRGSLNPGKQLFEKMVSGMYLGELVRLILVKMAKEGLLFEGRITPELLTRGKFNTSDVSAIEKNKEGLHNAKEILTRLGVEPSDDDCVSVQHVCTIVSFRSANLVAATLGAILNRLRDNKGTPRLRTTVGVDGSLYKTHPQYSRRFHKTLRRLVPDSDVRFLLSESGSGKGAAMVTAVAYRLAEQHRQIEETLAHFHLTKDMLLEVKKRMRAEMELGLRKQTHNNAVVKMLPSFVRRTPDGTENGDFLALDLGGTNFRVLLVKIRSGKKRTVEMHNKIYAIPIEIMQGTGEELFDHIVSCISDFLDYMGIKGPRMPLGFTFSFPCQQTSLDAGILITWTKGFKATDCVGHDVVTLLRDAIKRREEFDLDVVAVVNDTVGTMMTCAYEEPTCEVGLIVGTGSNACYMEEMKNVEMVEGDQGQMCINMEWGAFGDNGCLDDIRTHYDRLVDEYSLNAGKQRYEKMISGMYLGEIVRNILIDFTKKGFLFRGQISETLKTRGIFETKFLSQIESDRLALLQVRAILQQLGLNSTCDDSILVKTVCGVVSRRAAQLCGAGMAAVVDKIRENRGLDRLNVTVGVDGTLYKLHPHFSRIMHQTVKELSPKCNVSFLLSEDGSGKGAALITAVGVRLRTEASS

[13] = tested on: HEK293; assay: EBV LMP1 TES2 canonical NF-kB signalling blockers – cell-based, HEK293, luciferase, cherry-pick, dose response (AID 588343); assay type: functional; conditions: Homo sapiens
[14] = tested on: INS1; assay: INS-1E survival protection against cytokine death – cell-based, luminescence, retest, dose response (AID 449756); assay type: functional; conditions: Rattus norvegicus;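 further: cell death triggered by IL-1 beta plus TNF-alpha plus IFN-gamma mixture; protective hits raise ATP signal compared with cytokine alone wells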
[15] = target: ATP-dependent molecular chaperone HSP82 (Candida albicans (strain WO-1) (Yeast), UniProt C4YTQ8); assay: steroid-induced GRE reporter decrease in yeast – S. cerevisiae, luminescence, Hsp90 inhibitor project, dose response (AID 2400); assay type: functional, cell-based;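 further: beta-galactosidase luminescence from glucocorticoid response element reporter as proxy for Hsp90 function; inhibitor potency where signal loss means Hsp90 inhibition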
ATP-dependent molecular chaperone HSP82, sequence (C4YTQ8 whole entry): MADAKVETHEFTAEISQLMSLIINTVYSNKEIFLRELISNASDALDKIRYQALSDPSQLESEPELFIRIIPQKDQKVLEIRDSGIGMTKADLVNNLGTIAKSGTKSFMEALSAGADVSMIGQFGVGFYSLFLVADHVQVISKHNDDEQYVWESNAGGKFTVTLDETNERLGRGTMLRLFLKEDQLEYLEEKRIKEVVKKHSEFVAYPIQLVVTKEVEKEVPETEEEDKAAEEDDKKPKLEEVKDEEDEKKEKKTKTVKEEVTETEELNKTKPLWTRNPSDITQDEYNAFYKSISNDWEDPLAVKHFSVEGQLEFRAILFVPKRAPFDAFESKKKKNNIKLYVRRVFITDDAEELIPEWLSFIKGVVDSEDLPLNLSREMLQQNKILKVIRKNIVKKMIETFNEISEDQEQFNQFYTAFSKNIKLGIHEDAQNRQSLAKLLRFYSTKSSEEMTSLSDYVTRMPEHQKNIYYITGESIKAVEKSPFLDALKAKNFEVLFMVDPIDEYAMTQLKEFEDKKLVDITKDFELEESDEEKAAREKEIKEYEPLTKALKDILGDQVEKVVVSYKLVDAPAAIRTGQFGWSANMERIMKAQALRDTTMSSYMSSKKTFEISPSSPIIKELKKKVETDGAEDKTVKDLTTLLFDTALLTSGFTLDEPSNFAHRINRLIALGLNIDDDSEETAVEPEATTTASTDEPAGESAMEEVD

[16] = reduction of Shn3 3'UTR-driven luciferase in osteoblasts – cell-based, Clone20 osteoblasts, firefly luciferase, cherry-picked, dose response (AID 624132); assay type: functional;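 further: firefly luciferase luminescence from reporter carrying the Shn3 3'UTR in osteoblasts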
[17] = mammalian cell viability loss – Alamar Blue, dry powder, cytotoxicity control for antifungal single agent project, dose response (AID 602188); assay type: functional, cell-based
[18] = loss of viability in HepG2 cells – cell-based, CellTiter-Glo, cherry-picked, cytotoxicity control for Shn3 inhibitor project, dose response (AID 624134); assay type: functional
[19] = non-specific 3'UTR reporter inhibition in Clone20-Shn3RL – cell-based, Renilla luciferase, cherry-picked, counter-screen for Shn3 inhibitor project, dose response (AID 624133); assay type: functional
[20] = Luminescence Cell-Based Dose Response HTS to Identify Inhibitors of Luciferase Translation or Activity in H4-C Neuroglioblastoma Cells. [Related pubchem assays: 1813 (Primary HTS), 1827 (Project Summary)]; assay type: functional
[21] = Luminescence Cell-Based Dose Response HTS to Identify Activators of Luciferase Translation or Activity in H4-C Neuroglioblastoma Cells. [Related pubchem assays: 1829 (Project Summary), 1814 (Primary HTS)]; assay type: functional
[22] = luciferase reporter signal suppression in cells – H4 neuroglioma cells, luminescence, dose response (AID 1990); assay type: functional, cell-based
[23] = luciferase reporter signal reduction – luminescence, H4-C neuroglioblastoma cells, dose response (AID 2458); assay type: functional, cell-based;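 further: H4 neuroglioblastoma cells stably carrying a luciferase reporter gene fusion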
[24] = Luminescence Cell-Based Dose Retest to Confirm Activators of 5'UTR Stem-Loop Driven Alpha-Synuclein mRNA Translation in H4 Neuroglioblastoma Cells. [Related pubchem assays (depositor defined):AID1813, AID1829]; assay type: functional
[25] = Luminescence Cell-Based Dose Response HTS to Identify Activators of 5'UTR Stem-Loop Driven Prion Protein mRNA Translation in H4-C Neuroglioblastoma Cells. [Related pubchem assays: 1829 (Project Summary), 1814 (Primary HTS)]; assay type: functional
[26] = Luminescence Cell-Based Dose HTS Response to Identify Inhibitors of 5'UTR Stem-Loop Driven Prion Protein mRNA Translation in H4-C Neuroglioblastoma Cells. [Related pubchem assays (depositor defined):AID1814, AID1827]; assay type: functional
[27] = cells; assay type: functional, cell-based; remark: listed apart in the source
[28] = Luminescence Cell-Based Dose Response HTS to Identify Inhibitors of 5'UTR Stem-Loop Driven Prion Protein mRNA Translation in H4 Neuroglioblastoma Cells. [Related pubchem assays: 1827 (Project Summary), 1813 (Primary HTS)]; assay type: functional
[29] = target: Beta-galactosidase (Escherichia coli, UniProt Q8VNN2); assay: PubChem AID 485352; assay type: functional
Beta-galactosidase, sequence (Q8VNN2 whole entry): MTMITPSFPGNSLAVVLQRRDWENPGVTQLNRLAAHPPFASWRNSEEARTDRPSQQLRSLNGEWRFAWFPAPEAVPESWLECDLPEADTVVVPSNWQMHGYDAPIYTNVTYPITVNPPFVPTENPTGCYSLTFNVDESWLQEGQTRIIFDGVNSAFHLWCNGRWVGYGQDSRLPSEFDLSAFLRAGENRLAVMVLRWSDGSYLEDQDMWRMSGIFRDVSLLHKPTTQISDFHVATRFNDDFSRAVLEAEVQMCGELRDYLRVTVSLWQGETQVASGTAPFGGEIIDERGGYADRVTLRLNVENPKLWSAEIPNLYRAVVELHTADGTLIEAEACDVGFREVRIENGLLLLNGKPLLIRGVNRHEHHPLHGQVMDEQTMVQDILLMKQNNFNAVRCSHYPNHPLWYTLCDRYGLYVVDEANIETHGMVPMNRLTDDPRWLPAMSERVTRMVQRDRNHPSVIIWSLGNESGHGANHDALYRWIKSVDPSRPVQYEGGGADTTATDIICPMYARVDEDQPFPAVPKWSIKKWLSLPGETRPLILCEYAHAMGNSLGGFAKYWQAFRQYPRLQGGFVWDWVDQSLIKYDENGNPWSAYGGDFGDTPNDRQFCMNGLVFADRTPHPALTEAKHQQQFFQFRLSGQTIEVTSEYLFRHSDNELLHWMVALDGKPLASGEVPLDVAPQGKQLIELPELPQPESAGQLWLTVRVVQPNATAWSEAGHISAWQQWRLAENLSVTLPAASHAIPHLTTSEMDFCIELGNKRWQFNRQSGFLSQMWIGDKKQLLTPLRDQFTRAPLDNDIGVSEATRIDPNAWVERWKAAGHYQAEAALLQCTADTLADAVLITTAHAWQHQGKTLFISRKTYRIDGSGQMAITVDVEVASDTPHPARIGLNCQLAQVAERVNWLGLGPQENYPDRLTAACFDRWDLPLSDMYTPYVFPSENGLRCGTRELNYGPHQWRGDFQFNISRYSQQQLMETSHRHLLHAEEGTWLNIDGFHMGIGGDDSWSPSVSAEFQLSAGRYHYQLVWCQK

[30] = alpha-synuclein stem-loop luciferase translation blockers – H4 neuroglioma cells, luminescence, confirmation (AID 1988); assay type: functional, cell-based
[31] = Luminescence Cell-Based Dose Confirmation HTS to Identify Inhibitors of 5'UTR Stem-Loop Driven Alpha-Synuclein mRNA Translation in H4 Neuroglioblastoma Cells. [Related pubchem assays: 1827 (Project Summary), 1813 (Primary HTS)]; assay type: functional
[32] = target: T4, Type-1 angiotensin II receptor (Homo sapiens, UniProt P30556); assay: antagonism of angiotensin II type 1 receptor – cell-based, uHTS hits, selectivity assay for APJ receptor antagonist project, dose response (AID 463214); assay type: functional;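 further: antagonist potency against angiotensin II stimulated AT1 response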
T4 sequence (P30556 whole entry): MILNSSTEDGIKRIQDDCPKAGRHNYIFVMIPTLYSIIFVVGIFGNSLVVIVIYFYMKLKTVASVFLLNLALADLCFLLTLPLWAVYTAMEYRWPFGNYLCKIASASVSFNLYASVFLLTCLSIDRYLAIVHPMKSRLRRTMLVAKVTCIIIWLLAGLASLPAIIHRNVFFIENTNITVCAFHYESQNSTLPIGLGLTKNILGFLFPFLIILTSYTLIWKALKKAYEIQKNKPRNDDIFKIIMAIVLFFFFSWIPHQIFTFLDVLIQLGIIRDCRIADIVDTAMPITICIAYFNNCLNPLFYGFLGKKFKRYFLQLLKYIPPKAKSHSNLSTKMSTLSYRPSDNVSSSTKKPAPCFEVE

[33] = target: Induced myeloid leukemia cell differentiation protein Mcl-1 (Homo sapiens, UniProt Q07820); assay type: functional
Induced myeloid leukemia cell differentiation protein Mcl-1, sequence (Q07820 whole entry): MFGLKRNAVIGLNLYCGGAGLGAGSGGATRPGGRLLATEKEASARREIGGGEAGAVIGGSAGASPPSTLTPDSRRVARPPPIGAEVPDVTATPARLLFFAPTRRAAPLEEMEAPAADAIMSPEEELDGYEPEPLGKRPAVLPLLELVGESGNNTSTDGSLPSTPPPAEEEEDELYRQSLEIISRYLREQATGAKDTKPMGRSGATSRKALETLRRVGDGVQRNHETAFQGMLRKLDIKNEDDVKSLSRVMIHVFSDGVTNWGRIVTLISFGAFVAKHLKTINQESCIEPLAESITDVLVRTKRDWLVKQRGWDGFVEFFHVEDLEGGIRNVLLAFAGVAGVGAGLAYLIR

[34] = alpha-synuclein stem-loop translation blockers – luminescence, H4 neuroglioblastoma cells, dose confirmation, confirmation (AID 2454); assay type: functional, cell-based;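 further: H4 neuroglioblastoma cells carrying an alpha-synuclein 5'UTR luciferase reporter; potency for inhibition of the luciferase signal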
[35] = HEK-293T viability loss after treatment – luminescence, T-cell screen hits, cytotoxicity control for TCR NF-kB inhibitor project, dose response (AID 489026); assay type: functional, cell-based;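 further: cells exposed to compound about 14 hours before the viability readout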

## O=C(NNC(=S)Nc1ccc(Cl)c(Cl)c1)c1ccccn1
[1]
  EC50: 42000 nM (inconclusive)
[2]
  EC50: 2300 nM (active)
[3]
  EC50: 10500 nM (active)
[4]
  EC50: 853 nM (active)
[5]
  EC50: 1530 nM (active)
[6]
  EC50: > 350000 nM (not active)
[7]
  EC50: > 180000 nM (inactive)
[8]
  EC50: 5020 nM (active)
[9]
  EC50: 3320 nM (active)
[10]
  EC50: 2200 nM (active)
[11]
  IC50: 5570 nM (active)
[12]
  EC50: > 80000 nM (inactive)
[13]
  AC50: 6080 nM (active)
[14]
  AC50: 1060 nM (active)
[15]
  EC50: > 150000 nM (inactive)
[16]
  AC50: 2330 nM (active)
[17]
  AC50: 2980 nM (active)
[18]
  AC50: 3720 nM (active)
[19]
  AC50: 2440 nM (active)

## O=[N+]([O-])c1ccc(O)c(/C=N/Nc2ccc(Cl)nn2)c1
[1]
  EC50: 14600 nM (inconclusive)
[20]
  EC50: 925 nM (active)
[21]
  EC50: 1050 nM (inconclusive)
[22]
  EC50: 9520 nM (active)
[23]
  EC50: 717 nM (active)
[24]
  EC50: 673 nM (inconclusive)
[25]
  EC50: 375 nM (inconclusive)
[2]
  EC50: 305 nM (active)
[26]
  EC50: 904 nM (active)
[27]
  EC50: 779 nM (active)
[28]
  EC50: > 120000 nM (not active)
[29]
  EC50: > 40000 nM (inactive)
[30]
  EC50: < 100 nM (active)
[4]
  EC50: 179 nM (active)
[31]
  EC50: 825 nM (active)
[5]
  EC50: 633 nM (active)
[32]
  IC50: 3630 nM (active)
[7]
  EC50: > 180000 nM (inactive)
[8]
  EC50: < 6000 nM (inconclusive)
[33]
  IC50: 14100 nM (active)
[9]
  EC50: 944 nM (active)
[34]
  EC50: 650 nM (active)
[35]
  IC50: > 80000 nM (inactive)
[11]
  IC50: 1320 nM (active)
[15]
  EC50: > 150000 nM (inactive)
